Source: patent publication US20240050385A1, “METHODS OF TREATING LEPTOMENINGEAL METASTASIS” (MEMORIAL SLOAN-KETTERING CANCER CENTER, priority 2020, published 2024)
Entries after “also recorded” stand apart in the source; their conditions may differ. Structures can show the parent of a compound that is named as a salt.

What was measured:
MDA231-LeptoM cells = assay: In vivo leptomeningeal metastasis assay, MDA231-LeptoM model, intracisternal chelator treatment; set-up: species or system mouse; details: for Median Survival: every 3 days; for [Fe]: total iron in CSF
Experimental: FIG. 15A-15G. LCN2 transports iron to support cancer cell growth. (A) Tumor growth in mice injected with MDA231-LeptoM cells expressing shCtl or shLCN2. Treatment with either vehicle or 5 mg/mL holo-transferrin (diferric [Tf]) began on day 1 and continued every third day for a total of 7 doses. Left: Histogram represents in vivo BLI imaging post-inoculation at day 21. n=8-10 per group in each of two independent experiments. Right: Representative BLI images. ** indicates p<0.01 (unpaired t test). Data represent mean±SEM. (B) Kaplan-Meier survival curve of LeptoM groups from (A). sh1+Veh vs sh1+Tf, p<0.0001. sh2+Veh vs sh2+Tf, p<0.0001. (C) Soluble iron concentration from macrophages collected from CSF in lipopolysaccharide (LPS)-stimulated, LeptoM or LeptoM-shLCN2 (sh1 and sh2) mouse model at day 14. Soluble iron was measured by mass spectroscopy. n=4 per group. ** indicates p<0.01, *** indicates p<0.001, **** indicates p<0.0001 (unpaired t test). Data represent mean±SEM. (D and E) Phagocytosis (D) and reactive oxygen species (ROS) generation (E) in CSF-derived macrophages by flow cytometric analysis after LeptoM (LLC model), shLCN2 LPS, or vehicle (Ctl) treatment. Phagocytosis detected by FITC-labeled E. coli. CellROX Green^+ cells represent percent of live cells with ROS. n=12-15 (Ctl), n=4-5 (LPS), n=11-18 (LeptoM), n=8 (shLCN2). NS=not significant, * indicates p<0.05, ** indicates p<0.01, **** indicates p<0.0001 (unpaired t test). Data represent mean±SEM in two independent experiments. (F) Tumor growth in MDA231-LeptoM model after chelator treatment: deferoxamine (DFO), D-penicillamine (D-Pen) on […] (early) or day 7 (late); see also FIG. 16. Left: in vivo BLI imaging in day 28 post-inoculation. n=8-10 per group in each of two independent experiments. Right: Representative BLI images. **** indicates p<0.0001. Data represent mean±SEM. (G) Kaplan-Meier survival curve of mice treated in (F). p<0.0001.
(§1) FIG. 16A-16L. Iron chelator treatment reduces CSF iron. (A) Experimental scheme. Mice were inoculated with 2×10^3 cells intrathecally on day 0. Treatment with either vehicle, DFO, or D-pen was commenced on either day 1 or day 7 and continued every third day for a total of 7 doses. (B) Chelators delivered intrathecally. DFO, Deferoxamine. D-Pen, D-Penicillamine. (C-F) Intracellular iron (C and E) and viability (D and F) of PC9-LeptoM cells and MDA231-LeptoM cells after treatment with chelators in different concentrations (0 μM, 1 μM, 10 μM and 100 μM). n=3-4 per group in each of two independent experiments. * indicates p<0.05, ** indicates p<0.01, ***indicates p<0.001, **** indicates p<0.0001 (unpaired t test). Data represent mean±SEM. (G) Growth of PC9-LeptoM tumor after treatment indicated in (A). Left: in vivo BLI imaging in day 28 post-inoculation. n=8-10 per group in each of two independent experiments. Right: Representative BLI images. **** indicates p<0.0001. Data represent mean±SEM. (H) Kaplan-Meier survival curve from (C) and (E). p<0.0001. (I and J) Total iron concentration measured in CSF samples of mice with treatment of chelators in PC9-LeptoM Model (I) in MDA231-LeptoM model (J). NS=not significant, * indicates p<0.05, ** indicates p<0.01 (unpaired t test). Data represent mean±SEM. (K and L) Immune cell composition in CSF of LLC-LeptoM model with the treatment of vehicle, DFO, or D-pen at day 10. n=6 per group. NS=not significant, * indicates p<0.05, ** indicates p<0.01 (unpaired t test). Data represent mean±SEM.
In vivo leptomeningeal metastasis assays. To model leptomeningeal metastasis with a known consistent disease burden, 2×10^3 PC9, 2×10^3 MDA231, or 1×10^3 LLC Parental or LeptoM cells suspended in 10 μl PBS were injected into the cisterna magna of anesthetized mice. This procedure was tolerated well by the mice. Tumor progression was monitored by bioluminescence imaging (BLI) every 7 days after tumor cell inoculation, and mouse condition was monitored daily. […]

PC9-LeptoM cells = assay: In vivo leptomeningeal metastasis assay, PC9-LeptoM model, intracisternal chelator treatment; set-up: species or system mouse; details: for Median Survival: every 3 days; for [Fe]: total iron in CSF
Text: as §1
In vivo leptomeningeal metastasis assays. To model leptomeningeal metastasis with a known consistent disease burden, 2×10^3 PC9, 2×10^3 MDA231, or 1×10^3 LLC Parental or LeptoM cells suspended in 10 μl PBS were injected into the cisterna magna of anesthetized mice. This procedure was tolerated well by the mice. Tumor progression was monitored by bioluminescence imaging (BLI) every 7 days after tumor cell inoculation, and mouse condition was monitored daily. When the tumor cells encompassed the entire CNS, or when neurological impairment became apparent, CSF was collected as described above, and mice were euthanized. Brains and spinal cord were collected in tissue fixative and embedded for preservation or histological and morphometric analysis. The role of LCN2 in cancer progression at multiple metastatic sites was also assessed. Tumor burden was monitored and quantified non-invasively after tumor cell inoculation either by BLI signal using the IVIS Spectrum Xenogen (Caliper Life Sciences) machine or with calibrated digital caliper. To track cancer cell growth after hematogenous dissemination, 5×10^4 PC9-LeptoM cells (shCtl, shLCN2-1 and shLCN2-2) suspended in 50 μL PBS were injected into the left heart ventricle. Tumor burden was monitored every 3 days with BLI. To measure cancer cell growth in the lungs, 2.5×10^4 PC9-LeptoM cells (diluted 1:1 in Growth factor-reduced Matrigel, #354230) were injected into the left lung through the rib cage. Tumor burden was monitored every 3 days with BLI. To assess cancer cell growth after subcutaneous inoculation, 1×10^6 PC9-LeptoM cells (diluted 1:1 in growth factor-reduced Matrigel) were injected under the flank skin of the mouse, and tumor burden was monitored every 3 days with calibrated digital caliper. To introduce cells into the mammary fat pad, 5×10^4 MDA-231-LeptoM cells (diluted 1:1 in growth factor-reduced Matrigel) were injected into the fourth inguinal mammary fat pad; tumor burden was measured every 3 days with calibrated digital caliper. To test a hypoxic environment other than the leptomeninges, 5×10^6 cells, diluted in 200 uL PBS, were injected intraperitoneally. Tumor burden was monitored 7 days after inoculation by BLI. Exact numbers for each experimental series are included in the relevant Figure legends.
Mouse CSF collection and Intrathecal drug administration. […]

| Structure (SMILES) | Median Survival (MDA231-LeptoM cells; MDA231-LeptoM model, intracisternal, start day not given) [days] | [Fe] (MDA231-LeptoM cells; MDA231-LeptoM model, start day not given) [µM] | Median Survival (PC9-LeptoM cells; PC9-LeptoM model, intracisternal, start day not given) [days] | [Fe] (PC9-LeptoM cells; PC9-LeptoM model, start day not given) [µM] | iron concentration in the CSF compared to control mice (MDA231-LeptoM cells; MDA231-LeptoM model, day 28, in words) | [Fe] (MDA231-LeptoM cells; MDA231-LeptoM model, early (day 0)) [µM] | [Fe] (MDA231-LeptoM cells; MDA231-LeptoM model, late (day 7)) [µM] | Median Survival (MDA231-LeptoM cells; MDA231-LeptoM model, treatment begun early (day 0)) [days] | Median Survival (MDA231-LeptoM cells; MDA231-LeptoM model, treatment begun late (day 7)) [days] | dissemination of cancer cells over the spinal cord (MDA231-LeptoM cells; MDA231 mouse model, both early and late treatment groups, in words) | survival compared with vehicle control (MDA231-LeptoM cells; MDA231 mouse model, in words) | iron concentration in the CSF compared to control mice (PC9-LeptoM cells; PC9-LeptoM model, day 28, in words) | [Fe] (PC9-LeptoM cells; PC9-LeptoM model, late (day 7)) [µM] | Median Survival (PC9-LeptoM cells; PC9-LeptoM model, treatment begun late (day 7)) [days] | dissemination of cancer cells over the spinal cord (PC9-LeptoM cells; PC9 mouse model, both early and late treatment groups, in words) | survival compared with vehicle control (PC9-LeptoM cells; PC9 mouse model, in words) |
| --- | --- | --- | --- | --- | --- | --- | --- | --- | --- | --- | --- | --- | --- | --- | --- | --- |
| CC(C)(S)[C@@H](N)C(=O)O [D-Pen, D-penicillamine] | 28 ± 7 | 39.44 ± 2.43 | 31.5 ± 3.5 | 15.13 ± 4.21 |  |  |  |  |  |  |  |  |  |  |  |  |
| CC(=O)N(O)CCCCCNC(=O)CCC(=O)N(O)CCCCCNC(=O)CCC(=O)N(O)CCCCCN [DFO, Deferoxamine mesylate] |  |  |  |  | profoundly decreased; also recorded: reduced CSF iron concentration to that of non-LeptoM control mice | 10.55 ± 1.31 | 9.19 ± 0.98 | 54.5 ± 5.5 | 38 ± 7 | impaired dissemination | conferred a survival benefit; also recorded: significant survival benefit | profoundly decreased; also recorded: reduced CSF iron concentration to that of non-LeptoM control mice | 4.74 ± 0.38 | 40 ± 5 | impaired dissemination | conferred a survival benefit; also recorded: significant survival benefit |
